Structures can show the parent of a compound that is named as a salt.
Assays:
sonic hedgehog pathway [1] = test: Hedgehog pathway Gli-luciferase reporter assay, S12 cells; type: cell-based; settings: S12 mouse embryonic mesenchymal cells
Excerpt: Mouse (TM3: mouse Leydig cells; S12: mouse embryonic mesenchymal cells) and human (Daoy: human medulloblastoma cell; HepM: human embryonic palatal mesenchymal cell) cell lines are used to screen small molecules for their ability to modulate the activity of the sonic hedgehog pathway (Table 1, Table 2, and Table 3). Stable hedgehog pathway reporter cell lines are established by specific antibiotic selection following transfection of a reporter plasmid containing a luciferase gene located directly downstream from the gli promoter. Consequently, any observable changes in cellular luciferase activity may be attributed to changes in sonic hedgehog pathway activity in mouse and human cells, respectively, since gli is the major by-product of this pathway. To calculate activity, we generate an eleven point dose curve for each compound using 1:3 dilutions in 96 well assay plates. Each plate tested also contains low and high control to establish maximal pathway activation so to establish/compare a percentage activation of each tested compound (AMAX) on respective plates. Also we calculate EC50 values, or a concentration where the pathway will be exactly 50% activated, for each tested compound to determine potency. In these cell lines, compounds that register >20% AMAX values are considered active.
Stable hedgehog pathway reporter cell lines are established following specific antibiotic selection following transfection of a reporter plasmid In short, typically cells are plated in MicroTiter-plates at 10,000-20,000 cells per well, in growth media (containing 10%-20% FBS). After 48-72 hrs (HGL and DGL respectively) the media in the assay plates is switched to low-serum containing media (0.5% FBS). At that time compounds are added (at 1-5 μM) to the assay plates, in the presence or absence of hedgehog protein (octyl-modified version; 1-5 ng/ml). After another 24 hrs of incubation, the media from the assay plates is discarded and replaced with luciferase assay-mix. Subsequently, plates are incubated at RT for ˜15-30 mins and then read in a luminometer. [note: addition of the Hedgehog protein, although not critical, will sensitize the assay allowing the identification of weak actives].

sonic hedgehog pathway [2] = test: Human hedgehog reporter assay Daoy-GliLuc (DGL); type: cell-based; settings: Daoy human medulloblastoma cells, Gli-luciferase reporter
In short: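 Agonist mode: cells carrying a luciferase gene downstream of the gli promoter received compound at 1–5 μM in 0.5% FBS for 24 h, optionally sensitised with 1–5 ng/ml octyl-modified hedgehog protein; luminescence gave % activation and EC50.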

[3] = read-out: Human Daoy (Gli-Luc) Avg. EC50

SMILES | EC50 (sonic hedgehog pathway [1]; read-out: Mouse S12 Avg. EC50) [µM] | EC50 (sonic hedgehog pathway [2]; [3]) [µM] | EC50 (sonic hedgehog pathway [1]; read-out: S12 Avg. EC50) [µM] | EC50 (sonic hedgehog pathway [2]; read-out: Daoy Avg. EC50) [µM]
COc1ccc(-c2ccncc2)cc1CN(C(=O)c1sc2c(F)ccc(F)c2c1Cl)[C@H]1CC[C@@H](N)CC1 [Compound 375, N-((1r,4r)-4-aminocyclohexyl)-3-chloro-4,7-difluoro-N-(2-methoxy-5-(pyridin-4-yl)benzyl)benzo[b]thiophene-2-carboxamide hydrochloride] | < 0.05 | < 0.05 |  | 
COc1ccc(-c2cccnc2)cc1CN(C(=O)c1sc2cccc(F)c2c1Cl)[C@H]1CC[C@@H](N)CC1 [Compound 410, 3-Chloro-4-fluoro-benzo[b]thiophene-2-carboxylic acid (4-amino-cyclohexyl)-(2-methoxy-5-pyridin-3-yl-benzyl)-amide] |  |  | < 0.05 | < 0.05
CN[C@H]1CC[C@@H](N(Cc2cc(-c3ccc(N(C)S(C)(=O)=O)cc3)ccc2OC)C(=O)c2sc3c(F)ccc(F)c3c2Cl)CC1 [Compound 371, 3-Chloro-4,7-difluoro-benzo[b]thiophene-2-carboxylic acid [4′-(methanesulfonyl-methyl-amino)-4-methoxy-biphenyl-3-ylmethyl]-(4-methylamino-cyclohexyl)-amide hydrochloride] | < 0.05 | < 0.05 |  | 
CN[C@H]1CC[C@H](N(Cc2cc(-c3ccccc3S(C)(=O)=O)ccc2OC)C(=O)c2sc3c(F)ccc(F)c3c2Cl)CC1 [Compound 411, 3-Chloro-4,7-difluoro-benzo[b]thiophene-2-carboxylic acid (2′-methanesulfonyl-4-methoxy-biphenyl-3-ylmethyl)-(4-methylamino-cyclohexyl)-amide hydrochloride] |  |  | 0.25 to 1 | 1 to 2.5
CN[C@H]1CC[C@@H](N(Cc2cc(-c3cccnc3F)ccc2OC)C(=O)c2sc3cccc(F)c3c2Cl)CC1 [Compound 381] | < 0.05 | < 0.05 |  | 
CN[C@H]1CC[C@@H](N(Cc2cc(-c3cncc(F)c3)ccc2OC)C(=O)c2sc3cccc(F)c3c2Cl)CC1 [Compound 383, 3-chloro-4-fluoro-N-(5-(5-fluoropyridin-3-yl)-2-methoxybenzyl)-N-((1s,4s)-4-(methylamino)cyclohexyl)benzo[b]thiophene-2-carboxamide] | < 0.05 | < 0.05 |  | 
COc1ccc(-c2cc[n+](C)cc2)cc1CN(C(=O)c1sc2c(F)ccc(F)c2c1Cl)[C@H]1CC[C@@H](N)CC1 [Compound 418] |  |  | 1 to 2.5 | < 0.05
CNC1CCC(N(Cc2cc(-c3ccncc3F)ccc2OC)C(=O)c2sc3cccc(F)c3c2Cl)CC1 (stereo not shown) [Compound 387, 3-Chloro-4-fluoro-benzo[b]thiophene-2-carboxylic acid [5-(3-fluoro-pyridin-4-yl)-2-methoxy-benzyl]-(4-methylamino-cyclohexyl)-amide] | < 0.05 | < 0.05 |  | 
CN[C@H]1CC[C@@H](N(Cc2cc(-c3ccc([S+](C)[O-])cc3)ccc2OC)C(=O)c2sc3c(F)ccc(F)c3c2Cl)CC1 (stereo partly shown) [Compound 377, 3-Chloro-4,7-difluoro-benzo[b]thiophene-2-carboxylic acid (4′-methanesulfinyl-4-methoxy-biphenyl-3-ylmethyl)-(4-methylamino-cyclohexyl)-amide trifluoroacetate] | < 0.05 | < 0.05 |  | 
CNC1CCC(N(Cc2cc(-c3ccncc3F)ccc2OC)C(=O)c2sc3c(F)ccc(F)c3c2Cl)CC1 (stereo not shown) [Compound 386, 3-Chloro-4,7-difluoro-benzo[b]thiophene-2-carboxylic acid [5-(3-fluoro-pyridin-4-yl)-2-methoxy-benzyl]-(4-methylamino-cyclohexyl)-amide] | < 0.05 | < 0.05 |  | 
CCc1ccc(-c2ccncc2)cc1CN(C(=O)c1sc2c(F)ccc(F)c2c1Cl)[C@H]1CC[C@@H](NC)CC1 [Compound 395, 3-Chloro-4,7-difluoro-benzo[b]thiophene-2-carboxylic acid (2-ethyl-5-pyridin-4-yl-benzyl)-(4-methylamino-cyclohexyl)-amide dihydrochloride] | 0.05 to 0.25 | 0.05 to 0.25 |  | 
CN[C@H]1CC[C@@H](N(Cc2cc(OC)cc(-c3ccncc3)c2)C(=O)c2sc3c(F)ccc(F)c3c2Cl)CC1 [Compound 394, 3-Chloro-4,7-difluoro-benzo[b]thiophene-2-carboxylic acid (3-methoxy-5-pyridin-4-yl-benzyl)-(4-methylamino-cyclohexyl)-amide bis(trifluoroacetate)] | < 0.05 | < 0.05 |  | 
CNC1CCC(N(Cc2cc(-c3ccc(SC)cc3)ccc2OC)C(=O)c2sc3c(F)ccc(F)c3c2Cl)CC1 (stereo not shown) [Compound 373, 3-Chloro-4,7-difluoro-benzo[b]thiophene-2-carboxylic acid (4-methoxy-4′-methylsulfanyl-biphenyl-3-ylmethyl)-(4-methylamino-cyclohexyl)-amide hydrochloride] | < 0.05 | < 0.05 |  | 
CN[C@H]1CC[C@H](N(Cc2cc(-c3ccccc3SC)ccc2OC)C(=O)c2sc3c(F)ccc(F)c3c2Cl)CC1 [Compound 408, 3-Chloro-4,7-difluoro-benzo[b]thiophene-2-carboxylic acid (4-methoxy-2′-methylsulfanyl-biphenyl-3-ylmethyl)-(4-methylamino-cyclohexyl)-amide hydrochloride] |  |  | 0.25 to 1 | 0.25 to 1
CNC1CCC(N(Cc2cc(-c3ccnc(F)c3)ccc2OC)C(=O)c2sc3c(F)ccc(F)c3c2Cl)CC1 (stereo not shown) [Compound 384, 3-Chloro-4,7-difluoro-benzo[b]thiophene-2-carboxylic acid [5-(2-fluoro-pyridin-4-yl)-2-methoxy-benzyl]-(4-methylamino-cyclohexyl)-amide] | < 0.05 | < 0.05 |  | 
COc1ccc(-c2cncc(F)c2)cc1CN(C(=O)c1sc2c(F)ccc(F)c2c1Cl)[C@H]1CC[C@@H](N)CC1 [Compound 416] |  |  | < 0.05 | 0.05 to 0.25
CN[C@H]1CC[C@@H](N(Cc2cc(-c3ccc(S(=O)(=O)N(C)C)cc3)ccc2OC)C(=O)c2sc3c(F)ccc(F)c3c2Cl)CC1 [Compound 391, 3-Chloro-4,7-difluoro-benzo[b]thiophene-2-carboxylic acid (4′-dimethylsulfamoyl-4-methoxy-biphenyl-3-ylmethyl)-(4-methylamino-cyclohexyl)-amide trifluoroacetate] | < 0.05 | < 0.05 |  | 
COc1ccc(-c2ccc(S(C)(=O)=O)cc2)cc1CN(C(=O)c1sc2c(F)ccc(F)c2c1Cl)[C@H]1CC[C@@H](N)CC1 [Compound 390, 3-Chloro-4,7-difluoro-benzo[b]thiophene-2-carboxylic acid (4-amino-cyclohexyl)-(4′-methanesulfonyl-4-methoxy-biphenyl-3-ylmethyl)-amide hydrochloride] | < 0.05 | < 0.05 |  | 
CNC1CCC(N(Cc2cc(-c3cccc(SC)c3)ccc2OC)C(=O)c2sc3c(F)ccc(F)c3c2Cl)CC1 (stereo not shown) [Compound 372, 3-Chloro-4,7-difluoro-benzo[b]thiophene-2-carboxylic acid (4-methoxy-3′-methylsulfanyl-biphenyl-3-ylmethyl)-(4-methylamino-cyclohexyl)-amide hydrochloride] | < 0.05 | < 0.05 |  | 
CNC1CCC(N(Cc2cc(-c3ccc(F)nc3)ccc2OC)C(=O)c2sc3cccc(F)c3c2Cl)CC1 (stereo not shown) [Compound 382, 3-Chloro-4-fluoro-benzo[b]thiophene-2-carboxylic acid [5-(6-fluoro-pyridin-3-yl)-2-methoxy-benzyl]-(4-methylamino-cyclohexyl)-amide] | < 0.05 | < 0.05 |  | 
CN[C@H]1CC[C@@H](N(Cc2cc(-c3cccc([S+](C)[O-])c3)ccc2OC)C(=O)c2sc3c(F)ccc(F)c3c2Cl)CC1 (stereo partly shown) [Compound 376, 3-Chloro-4,7-difluoro-benzo[b]thiophene-2-carboxylic acid (3′-methanesulfinyl-4-methoxy-biphenyl-3-ylmethyl)-(4-methylamino-cyclohexyl)-amide trifluoroacetate] | < 0.05 | < 0.05 |  | 
CN[C@H]1CC[C@H](N(Cc2cc(-c3cccnc3OC)ccc2OC)C(=O)c2sc3cccc(F)c3c2Cl)CC1 [Compound 413] |  |  | 0.05 to 0.25 | < 0.05
CNC1CCC(N(Cc2cc(-c3cncc(F)c3)ccc2OC)C(=O)c2sc3c(F)ccc(F)c3c2Cl)CC1 (stereo not shown) [Compound 380, 3-Chloro-4,7-difluoro-benzo[b]thiophene-2-carboxylic acid [5-(5-fluoro-pyridin-3-yl)-2-methoxy-benzyl]-(4-methylamino-cyclohexyl)-amide] | < 0.05 | < 0.05 |  | 

From patent US20080182859A1 (Curis, Inc., priority 2006, published 2008)
